Assay results from BindingDB's records for doi:10.1016/s0960-894x(01)00011-7 (Institute, 2001).
pIC50: −log10 of the molar value.

Experiment: Inhibitory activity against non-nucleoside reverse transcriptase inhibitors (NNRTI) -resistant HIV-1 strain A17 with a Y181C mutation in RT (reverse transcriptase)

| Structure (SMILES) | pIC50 |
| --- | --- |
| S=C(NCCC1=CCCCC1)Nc1nccs1 [1-(2-Cyclohex-1-enyl-ethyl)-3-thiazol-2-yl-thiourea] | 6.05 |
| S=C(NCCOc1ccccc1)Nc1nccs1 [1-(2-Phenoxy-ethyl)-3-thiazol-2-yl-thiourea] | 5.36 |
| S=C(NCC12CC3CC(CC(C3)C1)C2)Nc1nccs1 [1-Adamantan-1-ylmethyl-3-thiazol-2-yl-thiourea] | 6.22 |
| S=C(NCc1ccco1)Nc1nccs1 [1-Furan-2-ylmethyl-3-thiazol-2-yl-thiourea] | 5.70 |
| Cc1ccc(CCNC(=S)Nc2nccs2)cc1 [1-Thiazol-2-yl-3-(2-p-tolyl-ethyl)-thiourea] | 5.41 |
| S=C(NCCc1c[nH]c2ccccc12)Nc1nccs1 [1-[2-(1H-Indol-3-yl)-ethyl]-3-thiazol-2-yl-thiourea] | 5.66 |

Experiment: Inhibitory activity against non-nucleoside reverse transcriptase inhibitors (NNRTI) -resistant HIV-1 strain A17 with a Y181C mutation in reverse transcriptase

| Structure (SMILES) | pIC50 |
| --- | --- |
| S=C(NCCc1cccs1)Nc1nccs1 [1-Thiazol-2-yl-3-(2-thiophen-2-yl-ethyl)-thiourea] | < 4.00 |

Experiment: Inhibitory activity against non-nucleoside reverse transcriptase inhibitors (NNRTI) -resistant HIV-1 strain A17 with a Y181C mutation in RT (reverse transcriptase)
Remark: another data set of the same source

| Structure (SMILES) | pIC50 |
| --- | --- |
| CCC(NC(=S)Nc1nccs1)c1ccccc1 (stereo not given) [1-(1-Phenyl-propyl)-3-thiazol-2-yl-thiourea] | 5.68 |
| S=C(NCCc1cccs1)Nc1ccc(Br)cn1 [1-(5-Bromo-pyridin-2-yl)-3-(2-thiophen-2-yl-ethyl)-thiourea] | 7.32 |
| Oc1ccc(CCNC(=S)Nc2ccc(Br)cn2)cc1 [1-(5-Bromo-pyridin-2-yl)-3-[2-(4-hydroxy-phenyl)-ethyl]-thiourea] | 7.15 |
